Values quoted from earlier work as cited in patent US11116745B2, “Prebiotic formulation” (Deep Cell Industries, Inc., priority 2018, dated 2021).

Key:
cannabinoid CB2 receptor = cannabinoid CB2 receptor (Homo sapiens, UniProt P34972)
[1] = not given; remark: listed apart in the source
enteric glial cells = conditions: over active enteric glial cells

cannabinoid CB2 receptor, sequence (P34972 whole entry): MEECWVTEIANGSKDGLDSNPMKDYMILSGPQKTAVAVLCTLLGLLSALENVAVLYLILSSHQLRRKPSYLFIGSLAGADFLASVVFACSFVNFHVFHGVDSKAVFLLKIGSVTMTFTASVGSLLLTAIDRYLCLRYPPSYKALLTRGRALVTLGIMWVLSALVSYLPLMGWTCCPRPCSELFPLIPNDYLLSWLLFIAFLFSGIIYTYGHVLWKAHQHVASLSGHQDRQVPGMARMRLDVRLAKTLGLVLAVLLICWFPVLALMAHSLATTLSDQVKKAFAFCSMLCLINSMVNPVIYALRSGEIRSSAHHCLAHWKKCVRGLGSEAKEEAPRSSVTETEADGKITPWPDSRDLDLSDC

## C=C(C)[C@@H]1CCC(C)=C[C@H]1c1c(O)cc(CCCCC)cc1O [Cannabidiol]
Cannabinoid CB2 receptor
  affinity for the cannabinoid CB2 receptor: very low affinity
other
  oral bioavailability (absorption): 13-19%
[1]
  solubility: low
Enteric glial cells
  expression of S100B and iNOS proteins: reduce
